Read-outs that look alike come from different tables or passages of the source. Marks after values point to notes of the source that are not given here.
Key:
[1] = test system: polyclonal antibodies prepared by Song et al.; conditions: cited from earlier work
[2] = goat, cited from earlier work
[3] = dogs, cited from earlier work
[4] = test system: mAbs reported by He et al.; conditions: relative to artemisinin; cited from earlier work
[5] = test system: mAb 3H7A10; experiment: Indirect competitive ELISA; assay type: binding, Balb/c mice; conditions: for Cross-reactivity: (IC50 of artemisinin/IC50 of other compound) × 100; for cross reactivities: artemisinin-specific mAb from position 9 hapten; for competitive inhibition: mAb 3H7A10, up to 20,000 ng mL^−1
[6] = test system: mAbs generated by Tanaka et al.; conditions: relative to artemisinin; cited from earlier work
[7] = test system: mAbs raised by artelinic acid-BSA conjugate; conditions: cited from earlier work
[8] = rats, cited from earlier work
[9] = humans, cited from earlier work
[10] = in vivo; set-up: species or system Sprague-Dawley rats; conditions: Sprague-Dawley, rat, ip, 10 mg/kg

Row | SMILES | recognition by polyclonal antibodies [1] | Cross-reactivity [4] | Cross-reactivity ([5]; mAb 3H7A10) | cross reactivities [5] | competitive inhibition ([5]; icELISA) | also measured
1 | C[C@H]1[C@@H](O)O[C@@H]2O[C@@]3(C)CC[C@H]4[C@H](C)CC[C@@H]1[C@@]24OO3 [Dihydroartemisinin] | equally well | 57% | 0% | almost no cross reactivities | No competitive inhibition | time of peak of the metabolite ([2]; after artemisinin): 12 h; blood concentrations ([3]; oral artemisinin): < 0.1 µM; Cross-reactivity [6]: 30%
2 | COc1cc(NC(C)CCCN)c2ncccc2c1 (stereo not drawn) [Primaquine phosphate] |  |  | 0% |  |  | 
3 | C=C[C@H]1C[N@@]2CC[C@H]1C[C@H]2[C@H](O)c1ccnc2ccc(OC)cc12 [Quinine] |  |  | 0% |  |  | 
4 | CO[C@H]1O[C@@H]2O[C@@]3(C)CC[C@H]4[C@H](C)CC[C@@H]([C@H]1C)[C@@]24OO3 [Artemether] | equally well | 3% | 0% | almost no cross reactivities | No competitive inhibition | binding by mAbs [7]: approximately the same level
5 | CCN(CC)CCCC(C)Nc1ccnc2cc(Cl)ccc12.O=P(O)(O)O.O=P(O)(O)O (stereo not drawn) [Chloroquine diphosphate salt] |  |  | 0% |  |  | 
6 | CCCCN(CCCC)CC(O)c1cc(Cl)cc2c1-c1ccc(Cl)cc1/C2=C/c1ccc(Cl)cc1 (stereo not drawn) [Lumefantrine] |  |  | 0% |  |  | 
7 | CCc1nc(N)nc(N)c1-c1ccc(Cl)cc1 [Pyrimethamine] |  |  | 0% |  |  | 
8 | C[C@H]1[C@H](OC(=O)CCC(=O)O)O[C@@H]2O[C@@]3(C)CC[C@H]4[C@H](C)CC[C@@H]1[C@@]24OO3 [Artesunate] | equally well | 650% | 0% | almost no cross reactivities | No competitive inhibition | Cross-reactivity [6]: 630%
9 | C[C@@H]1CC[C@H]2[C@@H](C)C(=O)O[C@@H]3O[C@@]4(C)CC[C@@H]1[C@]32OO4 [Artemisinin] |  |  | 100 ± 4.6% |  |  | half-life ([8]; in all these studies): ~ 30 min; AUC0-24h ([8]; intraperitoneal injection, 10 mg/kg): 0.132 µM/h; AUC0-3h ([8]; oral administration, 10 mg/kg): 0.0364 µg·h/mL; absorption and bioavailability ([2]; large amount of unabsorbed artemisinin eliminated in feces): slow absorption and low bioavailability; bioavailability ([3]; oral): bioavailability appeared low; AUC ([9]; another study): 754 ng·h/mL; Cmax ([9]; another study): 0.167 µg/mL; AUC ([9]; one study): 2,611 ng mL^−1 h; Cmax ([9]; one study): 0.623 µg/mL; half-life [9]: ~ 2 h; IC50 ([5]; icELISA, mAb 3H7A10, means of triplicate ± SD, NI = no inhibition observed with up to 20,000 ng mL^−1 of the analytes): 2.60 ±0.12 ^b ng/mL; AUC(0-t) [10]: 0.0437 µg·h/mL; Cmax [10]: 0.0291 ± 0.003 µg/mL; Tmax [10]: 5 min; half-life [10]: 22.8 min; binding by mAbs [7]: approximately the same level
